Experimental data published in US7109341B2, “Therapeutic amides” (Wayne State University, priority 2002, dated 2006).
“And” between values parts separate entries of the source, which are not always exact repeats. Equal entries are not always repeated. Where two headings read alike, the source gives them in different places.

Columns and labels:
[1] = test system: Pancreatic Ductal Adenocarcinoma 03; assay: Evaluation against early stage Pancreatic Ductal Adenocarcinoma 03 in female BDF1 mice (Table 4); assay type: in vivo, mouse; settings: PO
Text: The higher dose requirement for compound 14e may be a disadvantage over compound 11b (Cage 14).

Human Melanoma LOX = settings: IV, qd 1–6, BID 7, total 700 mg/kg
[2] = test system: Mammary Adenocarcinoma 16/C; settings: IV
Text: (§1) Pancreatic ductal adenocarcinoma-03, mammary adenocarcinoma-16/C, mammary adenocarcinoma-17/Adr, and human melanoma LOX were used in the studies. Tumors were maintained in the mouse strain of origin (C57B1/6 for Panc-03 and C3H for the mammary tumors). Balb/c SCID mice (B and T cell deficient) were used for tumor maintenance and chemotherapy trials involving the human melanoma LOX. Tumors were transplanted into the appropriate F1 hybrid (B6D2F1=C57B 1/6 female× DBA/2 male) or the strain of origin for the chemotherapy trials. Individual mouse body weights for each experiment were within 5 grams, and all mice were over 17 grams at the start of therapy. The mice were supplied food and water ad libitum.
(§2) Animals were pooled, implanted subcutaneously with 30 to 60 mg tumor fragments by a 12 gauge trocar on day 0, and again pooled before unselective distribution to the various treatment and control groups. For early stage treatment, chemotherapy was started within 1 to 3 days after tumor implantation while the number of cells was relatively small (10^7 to 10^8 cells). For upstaged or advanced staged trials, the tumors were allowed to grow for five or more days before treatment was started. Tumors were measured with a caliper twice weekly. […] Tumor weights are estimated from two-dimensional measurements:
(§3) Tumor weight (in mg)=(a×b^2)/2, where a and b are the tumor length and width in (mm), respectively.
a) Tumor growth delay (T−C value), where T is the median time (in days) required for the treatment group tumors to reach a predetermined size (e.g., 1,000 mg), and C is the median time (in days) for the control group tumors to reach the same size. Tumor-free survivors were are excluded from these calculations (cures are tabulated separately).
(§4) b) Calculation of tumor cell kill for subcutaneously (SC) growing tumors. […] The conversion of the T−C values to log10 cell kill is possible because the Td of tumors re-growing post treatment (Rx) approximates the Td values of the tumors in untreated control mice.
It should be noted that an activity rating of +++ to ++++ is needed to effect partial regression (PR) or complete regression (CR) of 100 to 300 mg size masses of most transplanted solid tumors of mice. Thus, an activity rating of + or ++ would not be scored as active by usual clinical criteria. A PR is a reduction in tumor mass to less than 50% of pretreatment size. A CR is a reduction in tumor mass to below palpable size (i.e., reduction to zero detectable mass).
(§5) The T/C value in percent is an indication of anti-tumor effectiveness: A T/C=0% means no tumor growth. A T/C=100% means no anti-tumor activity, i.e., the treated and control tumors grew equally. […] A T/C value<10% is considered to indicate highly significant anti-tumor activity, and is the level used by NCI to justify a clinical trial if toxicity, formulation, and certain other requirements are met (termed DN-2 level activity).
(§6) Compounds as their sodium salts were prepared in a 1% sodium bicarbonate solution, H2O or phosphate buffered saline (PBS), with pH adjusted to 7.0 to 7.5 with HCl, and administered intravenously (IV) or orally (PO), at injection volumes of 0.2 mL per injection.

[3] = test system: Pancreatic Ductal Adenocarcinoma #03
Text: as §1, §2, §3
a) Tumor growth delay (T−C value), where T is the median time (in days) required for the treatment group tumors to reach a predetermined size (e.g., 1,000 mg), and C is the median time (in days) for the control group tumors to reach the same size. Tumor-free survivors were are excluded from these calculations (cures are tabulated separately). This value is an important criterion of anti-tumor effectiveness because it allows the quantification of tumor cell kill.
as §4
In selected cases, both for historic in vivo evaluation data as well as data presented here, it is of value to compare log kill numbers from trials of markedly different testing schedules. […] It should be noted that an activity rating of +++ to ++++ is needed to effect partial regression (PR) or complete regression (CR) of 100 to 300 mg size masses of most transplanted solid tumors of mice. Thus, an activity rating of + or ++ would not be scored as active by usual clinical criteria. A PR is a reduction in tumor mass to less than 50% of pretreatment size. A CR is a reduction in tumor mass to below palpable size (i.e., reduction to zero detectable mass).
as §5, §6

[4] = test system: Mammary Adenocarcinoma 16/C; settings: Cage 2, IV, BID 1–5, total 600 mg/kg
Text: Table 7. […] The animal was then re-implanted with Mam16/C/71.

[5] = Cage 2, 120 mg/kg/inj 2×/day days 3–9, total 1680 mg/kg
[6] = Cage 3, 60 mg/kg/inj 2×/day days 3–9, total 840 mg/kg
[7] = Cage 4, 30 mg/kg/inj 2×/day days 3–9, total 420 mg/kg
[8] = Cage 4, d1, 3–5, 7, 9, 11, 13, 15, total 1610 mg/kg
[9] = Cage 5, d1, 3–7, 9, total 665 mg/kg
[10] = Cage 3, IV-SC, qd 3–5, 8–11, BID 6, 7, total 780 mg/kg
[11] = Cage 4, IV-SC, qd 3–5, 8–11, BID 6, 7, total 390 mg/kg
[12] = Cage 5, IV, qd 3, 4, total 30 mg/kg

CC(Oc1ccc(Oc2ccc3ccc(Cl)cc3n2)cc1)C(=O)N(C)C (stereo not shown) [Compound 14e, 2-{4-((7-Chloro-2-quinolinyl)oxy)phenoxy}propiondimethylamide]
% Body Wt Loss at Nadir [1, 5]: +4.3%
% T/C mass [1, 5]: 8.3%
Day of Nadir [1, 5]: 9 days
Drug Deaths [1, 5]: 0/5
Growth Delay [1, 5]: 16.5 days
Log Kill [1, 5]: 2.5
Median Tumor Mass on Day 14 (Range) [1, 5]: 126
Tumor Free day-37 [1, 5]: 0/5
toxicity observations [1, 5]: no evident toxicity
% Body Wt Loss at Nadir [1, 6]: +3.3%
% T/C mass [1, 6]: 15%
Activity Rating [1, 6]: +++ (2.0–2.8)
Day of Nadir [1, 6]: 10 days
Drug Deaths [1, 6]: 0/5
Growth Delay [1, 6]: 14.5 days
Log Kill [1, 6]: 2.2
Median Tumor Mass on Day 14 (Range) [1, 6]: 234
Tumor Free day-37 [1, 6]: 0/5
% Body Wt Loss at Nadir [1, 7]: 0%
% T/C mass [1, 7]: 37%
Day of Nadir [1, 7]: 9 days
Drug Deaths [1, 7]: 0/5
Growth Delay [1, 7]: 3.5 days
Log Kill [1, 7]: 0.5
Median Tumor Mass on Day 14 (Range) [1, 7]: 567
Tumor Free day-37 [1, 7]: 0/5

CC(Oc1ccc(Oc2cnc3ccc(Cl)cc3n2)cc1)C(=O)NCCS(=O)(=O)[O-].[Na+] [Compound 14f (R)]
Comments (activity rating) (Human Melanoma LOX; Cage 2): (+) (0.7–1.2)
Drug Death (day of death) (Human Melanoma LOX; Cage 2): no drug deaths and 0/5
Log Cell Kill (Human Melanoma LOX; Cage 2): 0.8
Median Tumor Burden in mg on d 9 (range) (Human Melanoma LOX; Cage 2): 651 mg
T-C (Human Melanoma LOX; Cage 2): 3.0 days
T/C % (Human Melanoma LOX; Cage 2): 47%
Time to 1000 mg days (range) (Human Melanoma LOX; Cage 2): 11.0 days
Tumor Free on d 18 (Human Melanoma LOX; Cage 2): 0/5
Day of Wt. Loss Nadir [2, 8]: 14 days
Drug Death (day of death) [2, 8]: 0/5
Log Cell Kill [2, 8]: 4.2
Mean Body Wt. Loss in g/mouse [2, 8]: −0.8 g/mouse
Median Tumor Burden in mg on day 7 (range) [2, 8]: 0 mg
Percent Body Weight Loss [2, 8]: −3.0%
T-C [2, 8]: 14 days
T/C % [2, 8]: 0%
Time to 1000 mg in days (range) [2, 8]: 20 days
Tumor Free on d28 [2, 8]: no cures and 0/5
day of full body weight recovery [2, 8]: ≤ 16 days
Day of Wt. Loss Nadir [2, 9]: 5 days
Drug Death (day of death) [2, 9]: 0/5
Log Cell Kill [2, 9]: 1.8
Mean Body Wt. Loss in g/mouse [2, 9]: −0.8 g/mouse
Median Tumor Burden in mg on day 7 (range) [2, 9]: 260 mg
Percent Body Weight Loss [2, 9]: −2.9%
T-C [2, 9]: 6 days
T/C % [2, 9]: 14%
Time to 1000 mg in days (range) [2, 9]: 12 days
Tumor Free on d28 [2, 9]: 0/5

CC(Oc1ccc(Oc2cnc3ccc(Cl)cc3n2)cc1)C(=O)NCCS(=O)(=O)[O-].[Na+] [Compound 14f (S)]
Comments (activity rating) (Human Melanoma LOX; Cage 3): Inactive
Drug Death (day of death) (Human Melanoma LOX; Cage 3): 0/5
Log Cell Kill (Human Melanoma LOX; Cage 3): 0.3
Median Tumor Burden in mg on d 9 (range) (Human Melanoma LOX; Cage 3): 994 mg
T-C (Human Melanoma LOX; Cage 3): 1.0 days
T/C % (Human Melanoma LOX; Cage 3): 71%
Time to 1000 mg days (range) (Human Melanoma LOX; Cage 3): 9.0 days
Tumor Free on d 18 (Human Melanoma LOX; Cage 3): 0/5

CC(Oc1ccc(Oc2cnc3ccc(Cl)cc3n2)cc1)C(=O)NCCS(=O)(=O)[O-].[Na+] (stereo not shown) [Compound 14f, Sodium (2-(4-(7-chloro-2-quinoxalinyl)oxy)phenoxy)propionylamino ethanesulfonate]
Drug Death (day of death) [3, 10]: 0/5
Log Cell Kill [3, 10]: 1.67
Median Tumor Burden in mg on d17 (range) [3, 10]: 126 mg
T-C [3, 10]: 10.0 days
T/C % [3, 10]: 10%
Time to 1000 mg in days (range) [3, 10]: 26 days
Tumor Free on d35 [3, 10]: 0/5
Comments (activity rating) [3, 11]: Inactive
Drug Death (day of death) [3, 11]: 0/5
Log Cell Kill [3, 11]: 0.58
Median Tumor Burden in mg on d17 (range) [3, 11]: 600 mg
T-C [3, 11]: 3.5 days
T/C % [3, 11]: 50%
Time to 1000 mg in days (range) [3, 11]: 19.5 days
Tumor Free on d35 [3, 11]: 0/5
Comments (activity rating) [3, 12]: Inactive
Drug Death (day of death) [3, 12]: 0/5
Log Cell Kill [3, 12]: 0.0
Median Tumor Burden in mg on d17 (range) [3, 12]: 1420 mg
T-C [3, 12]: 0.0 days
T/C % [3, 12]: >100%
Time to 1000 mg in days (range) [3, 12]: 16 days
Tumor Free on d35 [3, 12]: 0/5
Day of Wt. Loss Nadir ([3]; mouse, in vivo): 11 days

CC(Oc1ccc(Oc2ccc3ccc(Br)cc3n2)cc1)C(=O)NCCS(=O)(=O)[O-].[Na+] (stereo not shown) [Compound 14g, Sodium (2-(4-(7-bromo-2-quinolinyl)oxy)phenoxy)propionylamino ethanesulfonate]
Day of Wt. Loss Nadir [4]: 4 days
Drug Death (day of death) [4]: 0/6
Log Cell Kill [4]: 0.9
Mean Body Wt. Loss in g/mouse [4]: −2.3 g/mouse
Median Tumor Burden in mg on d 9 (range) [4]: 230 mg
T-C [4]: 3.5 days
T/C % [4]: 14%
Time to 1,000 mg in days (range) [4]: 11.5 days
day of full body weight recovery [4]: ≤ 10 days
Percent Body Weight Loss ([4]; listed as 14g (Racemic)): −11.0%
Tumor Free on d 161 ([4]; listed as 14g (Racemic)): 1/6
Comments (activity rating) ([4]; listed as 14g Racemic): + (0.7–1.2)
Percent Body Weight Loss ([4]; listed as 14g Racemic): 11%
Tumor Free on d 161 ([4]; listed as 14g Racemic): One animal remained tumor free
Percent Body Weight Loss ([4]; listed as 14g racemic): −11%
Tumor Free on d 161 ([4]; listed as 14g racemic): ⅕
